Laboratory results taken from patent US11899014B2, “Detection of analytes using live cells” (THE TRUSTEES OF COLUMBIA UNIVERSITY IN THE CITY OF NEW YORK, priority 2014, dated 2024).
pEC50: −log10 of the molar value.

Columns and labels:
[1] = target: S. cerevisiae native Ste2 receptor (Saccharomyces cerevisiae, UniProt D6VTK4); assay: Fungal GPCR activation in S. cerevisiae sensor strain, fluorescent reporter; assay type: cell-based; details: non-cognate peptide
[2] = test system: C. albicans mating receptor (Ca.Ste2) biosensor; assay: Paper-based dipstick assay, lycopene readout, C. albicans biosensor; assay type: cell-based, Candida albicans; details: 1 μM peptide
M. oryzea mating GPCR = assay type: cell-based, Magnaporthe oryzea
B. cinerea mating GPCR = assay type: cell-based, Botrytis cinerea; details: cognate synthetic peptide pheromone, fluorescent readout
[3] = test system: P. brasiliensis mating receptor (Pb.Ste2) biosensor; assay type: cell-based, Paracoccidioides brasiliensis
[4] = test system: F. graminearum mating GPCR; assay type: cell-based, Fusarium graminearum
endogenous GPCR Ste2 = endogenous GPCR Ste2 (Saccharomyces cerevisiae, UniProt D6VTK4); assay type: cell-based, S. cerevisiae; details: v1.0 lycopene reporter strain
[5] = test system: C. albicans mating GPCR (Ca.Ste2); assay type: cell-based, Candida albicans; details: non-cognate peptide
[6] = test system: L. elongisporous mating GPCR; assay type: cell-based; details: cognate synthetic peptide pheromone, fluorescent readout

S. cerevisiae native Ste2 receptor, sequence (D6VTK4 whole entry): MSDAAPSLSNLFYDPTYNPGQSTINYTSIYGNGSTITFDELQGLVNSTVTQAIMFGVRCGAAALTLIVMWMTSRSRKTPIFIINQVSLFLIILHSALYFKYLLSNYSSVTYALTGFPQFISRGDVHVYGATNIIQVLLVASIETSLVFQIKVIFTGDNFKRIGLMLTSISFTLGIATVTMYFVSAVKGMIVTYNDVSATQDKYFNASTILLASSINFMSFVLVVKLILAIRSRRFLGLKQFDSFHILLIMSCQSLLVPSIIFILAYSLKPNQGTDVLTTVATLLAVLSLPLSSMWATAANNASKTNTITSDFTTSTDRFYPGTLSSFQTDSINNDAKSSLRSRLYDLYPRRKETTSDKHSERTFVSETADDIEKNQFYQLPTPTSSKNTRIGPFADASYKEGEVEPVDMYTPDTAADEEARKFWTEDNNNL
endogenous GPCR Ste2, sequence (D6VTK4 whole entry): as above

GFRLTNFGYFEPG [GFRLTNFGYFEPG (SEQ ID NO: 5)]
response of S. cerevisiae native Ste2 receptor to non-cognate pheromone [1]: not | response of C. glabrata receptor to the other species pheromone (C. glabrata mating GPCR; non-cognate peptide): did not respond | time to maximal response in dipstick assay [2]: ≤ 12 h

QWCPRRGQPCW [QWCPRRGQPCW (SEQ ID NO: 17)]
pEC50 (M. oryzea mating GPCR): 5.30

WCGRPGQPC [WCGRPGQPC (SEQ ID NO: 20)]
pEC50 (B. cinerea mating GPCR): > 9.00

WCTRPGQGC [WCTRPGQGC (SEQ ID NO: 11)]
time to maximal response in dipstick assay [3]: ≤ 12 h

WCWWKGQPCW [WCWWKGQPCW (SEQ ID NO: 14)]
pEC50 [4]: 6.64

WHWLQLKPGQPMY [WHWLQLKPGQPMY (SEQ ID NO: 24)]
time until reporter strain became visibly orange after exposure (endogenous GPCR Ste2): 36 h

WHWVRLRKGQGLF [WHWVRLRKGQGLF (SEQ ID NO: 8)]
response of S. cerevisiae native Ste2 receptor to non-cognate pheromone [1]: responded | response of C. albicans receptor to the other species pheromone [5]: did not respond | pEC50 (C. glabrata mating GPCR; cognate synthetic peptide pheromone, biosensor settings): 5.44

WMWTRYGRFSPV [WMWTRYGRFSPV (SEQ ID NO: 34)]
pEC50 [6]: 7.29
